According to ChEMBL document CHEMBL1143368, “The translocator protein (18 kDa): central nervous system disease and drug design” (J Med Chem, 2009):

Key:
[1] = biological target: Translocator protein (Homo sapiens) (UniProt P30536); experiment: Displacement of [3H]Ro5-4864 from TSPO
Rattus norvegicus [2] = organism: Rattus norvegicus; experiment: Displacement of [3H]Ro5-4864 from GABAA receptor in rat brain membrane; type: cell membranes
[3] = biological target: Translocator protein (Mus musculus) (UniProt P50637); experiment: Binding affinity to mitochondrial TSPO in mouse MA10 cells in presence of human chorionic gonadotropin; type: cell-based
Sequence of Translocator protein (Mus musculus) (P50637 whole entry, looked up): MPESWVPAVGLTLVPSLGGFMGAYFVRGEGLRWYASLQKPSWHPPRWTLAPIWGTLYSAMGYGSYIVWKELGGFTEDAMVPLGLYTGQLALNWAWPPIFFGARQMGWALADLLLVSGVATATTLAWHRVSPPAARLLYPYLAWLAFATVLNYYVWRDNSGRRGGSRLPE

U-937 [4] = experiment: Antiapoptotic activity against TNF-alpha-induced apoptosis in human U937 cells; type: functional
U-937 [5] = experiment: Induction of apoptosis in human U937 cells; type: functional
[6] = biological target: Translocator protein (Homo sapiens) (UniProt P30536); experiment: Displacement of [3H]Ro5-4864 from TSPO in caudate nucleus of patient with Huntington's disease; conditions: tested as the 3H-labelled form
[7] = biological target: Translocator protein (Homo sapiens) (UniProt P30536); experiment: Displacement of [3H]Ro5-4864 from TSPO in putamen of healthy human; conditions: tested as the 3H-labelled form
Translocator protein = Translocator protein (Rattus norvegicus, UniProt P16257); experiment: Displacement of [3H]PK11195 from TSPO in rat cortex
Sequence of Translocator protein (P16257 whole entry, looked up): as the sequence (P50637 whole entry, looked up) above, with P2S, E3Q, V67I, D77E, A110V, L113M, V149M, P168T counted along it

Rattus norvegicus [8] = organism: Rattus norvegicus; experiment: Displacement of [3H]diazepam from central benzodiazepine receptor in Wistar rat […] by scintillation counting
[9] = biological target: Translocator protein (Homo sapiens) (UniProt P30536); experiment: Binding affinity to TSPO in parietal lobe of healthy human; type: tissue-based; conditions: tested as the 125I-labelled form
[10] = biological target: Translocator protein (Homo sapiens) (UniProt P30536); experiment: Binding affinity to TSPO in white matter of healthy human; type: tissue-based; conditions: tested as the 125I-labelled form
[11] = biological target: Translocator protein (Homo sapiens) (UniProt P30536); experiment: Binding affinity to TSPO in temporal lobe of healthy human; type: tissue-based; conditions: tested as the 125I-labelled form
[12] = biological target: Translocator protein (Homo sapiens) (UniProt P30536); experiment: Binding affinity to TSPO in parietal lobe of patient with Alzheimer's disease; conditions: tested as the 125I-labelled form
[13] = biological target: Translocator protein (Homo sapiens) (UniProt P30536); experiment: Binding affinity to TSPO in white matter of patient with Alzheimer's disease; type: tissue-based; conditions: tested as the 125I-labelled form
[14] = biological target: Translocator protein (Homo sapiens) (UniProt P30536); experiment: Binding affinity to TSPO in temporal lobe of patient with Alzheimer's disease; conditions: tested as the 125I-labelled form

Sequence of Translocator protein (Homo sapiens) (P30536 whole entry): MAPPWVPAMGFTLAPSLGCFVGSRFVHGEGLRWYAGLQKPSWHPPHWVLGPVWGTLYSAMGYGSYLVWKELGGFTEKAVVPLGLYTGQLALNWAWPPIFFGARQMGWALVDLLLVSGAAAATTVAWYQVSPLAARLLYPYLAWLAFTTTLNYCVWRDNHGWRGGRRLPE

Compound: CN1C(=O)CN=C(c2ccc(Cl)cc2)c2cc(Cl)ccc21 [RO-54864]
- Activity [1]: 7.3 nM
- Activity (Rattus norvegicus [2]): 163 µM
- Activity [3]: 0.2 nM
- Activity (U-937 [4]): 10 µM
- Activity (U-937 [5]): >10 µM
- Bmax [6]: 61.7 fmol/mg
- Bmax [7]: 40.7 fmol/mg

Compound: CCCCCCN(CCCCCC)C(=O)Cc1c(-c2ccc(F)cc2)[nH]c2ccccc12
- Ki (Translocator protein): 5 nM

Compound: CN1C(=O)CN=C(c2ccccc2)c2cc(Cl)ccc21
- Activity (Rattus norvegicus [8]): 40 nM

Compound: COc1ccc(OC)c(CN(C(C)=O)c2cc(I)ccc2Oc2ccccc2)c1
- Bmax [9]: 0.32 fmol/mg
- Bmax [10]: 0.24 fmol/mg
- Bmax [11]: 0.22 fmol/mg
- Bmax [12]: 1.26 fmol/mg
- Bmax [13]: 1.12 fmol/mg
- Bmax [14]: 1.02 fmol/mg

Compound: CC(=O)N(Cc1ccccc1OC(C)C)c1ccc(Cl)cc1Oc1ccccc1
- Ki (Translocator protein): 0.92 nM
